Laboratory results: patent US10011591B2, “Crystalline form of afatinib dimaleate” (Sun Pharmaceutical Industries Limited, priority 2014, dated 2018)

Assay: Storage stability towards polymorphic conversion, triple layer package
Format: physicochemical
Details: 25° C. ±2° C. and 60% ±5% relative humidity for two months under triple layer package
Source text: The term “triple layer package,” as used herein, refers to the afatinib dimaleate being packed in a low density polyethylene (LDPE) pouch, then inserted and heat sealed under vacuum in a bag with a mixture of polyester/LDPE with silica sachet as a desiccant, and then further inserted and heat sealed under vacuum into an outer bag with a mixture of polyester film/aluminum foil/polyester LDPE.

In the case of CN(C)C/C=C/C(=O)Nc1cc2c(Nc3ccc(F)c(Cl)c3)ncnc2cc1O[C@H]1CCOC1.O=C(O)/C=C\C(=O)O.O=C(O)/C=C\C(=O)O [crystalline Form I of afatinib dimaleate, 2-butenamide, N-[4-[(3-chloro-4-fluorophenyl)amino]-7-[[(3S)-tetrahydro-3-furanyl]oxy]-6-quinazolinyl]-4-(dimethylamino)-,(2E)-, (2Z)-2-butenedioate (1:2)], the “polymorphic form stability on storage (conversion to any other form)” value is reported as “not converted to any other form of afatinib dimaleate”.
